Measured values from US20240115557A1, “INHIBITORS OF RNA-GUIDED NUCLEASES AND USES THEREOF” (The Brigham and Women's Hospital, Inc., priority 2022, published 2024).

How the values were obtained:
SpCas9 [1] = biological target: T1, SpCas9 (Streptococcus pyogenes serotype M1, UniProt Q99ZW2); assay: Strand displacement assay (SDA) / cumulative activity assay (CAA), SpCas9 primary screen; assay type: biochemical; details: Primary Screen (150 min); for Normalized Z score 1: replicate 1; for Normalized Z score 2: replicate 2
Protocol: Screening of inhibitors was via a high throughput pipeline, as depicted in FIG. 29. The first screening is via a strand displacement assay (SDA) for detecting nuclease activity (FIG. 27A, 28A). The Cpf1/Cas12 protein/DNA complex has a different structure from Cas9 and requires optimization of the potential fluorophore attachment sites (Yamano, T et al., Cell, 2016). (FIG. 28A). Next screened compounds are evaluated in an eGFP cell assay, and for eGFP dose. Those compounds are further narrowed via a HiBiT assay and finally evaluated in the surveyor assay. SAR evaluations are performed to arrive at lead compounds for further evaluations and variations. General methodology for the assays is as described in at [0253]-[0301] of U.S. Patent Application 62/831,143 filed Apr. 8, 2019, incorporated herein by reference.
The 3′ end of the displacing single-stranded DNA was labeled with a quencher. Following nuclease cleavage of the substrate, the 3′-labeled quenching DNA strand (present in excess) could outcompete the weakly held 3′ strand to anneal to the 5′ strand. The resulting FRET fluorescence quenching provides an optical readout for nuclease activity (FIG. 62A).
Typically, SpCas9: gRNA (1:1.2 ratio) RNP was pre-formed at 1 μM in Cas9 assay buffer (20 mM Tris-HCl, pH=7.5, 100 mM KCl, 5 mM MgCl2) for 5 min at 4° C. before diluting to 10 nM in Cas9 assay buffer (2× final concentration). 25 μL of the Cas9 2× stock was manually dispensed to a black 384-well plate (Corning 3575) using electronic pipette. […] Following this, pre-annealed Alexa-Fluor 647 labeled substrate and quencher were also diluted to 1 nM and 5 nM in Cas9 assay buffer, respectively (2× stock solution). Next, 25 μL of the substrate/quencher solution was added manually to each well of the Cas9-containing 384-well plates using an electronic pipette and was incubated at 37° C. for 2.5 h. Fluorescent signals were read with the microplate reader set to read Alexa-Fluor 647 fluorescence. Assay was performed similarly with SaCas9 and FnCas12a using the respective enzyme, gRNA, substrate, and quencher oligos. […]

SpCas9 [2] = biological target: T1, SpCas9; assay: eGFP disruption assay, SpCas9, U2OS.eGFP.PEST cells; assay type: cell-based; details: for Normalized Z rep1 / Z score Rep1: replicate 1; for SpCas9 eGFP disruption Rep1: replicate 1, raw readout; for Normalized Z rep2 / Z socre Rep2: replicate 2; for SpCas9 eGFP disruption Rep2: replicate 2, raw readout
Procedure, shortened: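 Rescue of eGFP signal lost through Cas9-induced NHEJ indels serves as the inhibition read-out, after 24 h compound exposure (20 μM for hits, variable for dose-response). Editing was delivered by nucleofection into U2OS.eGFP.PEST cells as SpCas9/gRNA plasmids (300/30 ng) or RNP (10/12 pmol). Toxic and autofluorescent compounds were excluded.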

[3] = Cas9 = lower control, Ctrl = upper control
[4] = normalized, lower control about 0, upper control about 1

T1 sequence (Q99ZW2 whole entry): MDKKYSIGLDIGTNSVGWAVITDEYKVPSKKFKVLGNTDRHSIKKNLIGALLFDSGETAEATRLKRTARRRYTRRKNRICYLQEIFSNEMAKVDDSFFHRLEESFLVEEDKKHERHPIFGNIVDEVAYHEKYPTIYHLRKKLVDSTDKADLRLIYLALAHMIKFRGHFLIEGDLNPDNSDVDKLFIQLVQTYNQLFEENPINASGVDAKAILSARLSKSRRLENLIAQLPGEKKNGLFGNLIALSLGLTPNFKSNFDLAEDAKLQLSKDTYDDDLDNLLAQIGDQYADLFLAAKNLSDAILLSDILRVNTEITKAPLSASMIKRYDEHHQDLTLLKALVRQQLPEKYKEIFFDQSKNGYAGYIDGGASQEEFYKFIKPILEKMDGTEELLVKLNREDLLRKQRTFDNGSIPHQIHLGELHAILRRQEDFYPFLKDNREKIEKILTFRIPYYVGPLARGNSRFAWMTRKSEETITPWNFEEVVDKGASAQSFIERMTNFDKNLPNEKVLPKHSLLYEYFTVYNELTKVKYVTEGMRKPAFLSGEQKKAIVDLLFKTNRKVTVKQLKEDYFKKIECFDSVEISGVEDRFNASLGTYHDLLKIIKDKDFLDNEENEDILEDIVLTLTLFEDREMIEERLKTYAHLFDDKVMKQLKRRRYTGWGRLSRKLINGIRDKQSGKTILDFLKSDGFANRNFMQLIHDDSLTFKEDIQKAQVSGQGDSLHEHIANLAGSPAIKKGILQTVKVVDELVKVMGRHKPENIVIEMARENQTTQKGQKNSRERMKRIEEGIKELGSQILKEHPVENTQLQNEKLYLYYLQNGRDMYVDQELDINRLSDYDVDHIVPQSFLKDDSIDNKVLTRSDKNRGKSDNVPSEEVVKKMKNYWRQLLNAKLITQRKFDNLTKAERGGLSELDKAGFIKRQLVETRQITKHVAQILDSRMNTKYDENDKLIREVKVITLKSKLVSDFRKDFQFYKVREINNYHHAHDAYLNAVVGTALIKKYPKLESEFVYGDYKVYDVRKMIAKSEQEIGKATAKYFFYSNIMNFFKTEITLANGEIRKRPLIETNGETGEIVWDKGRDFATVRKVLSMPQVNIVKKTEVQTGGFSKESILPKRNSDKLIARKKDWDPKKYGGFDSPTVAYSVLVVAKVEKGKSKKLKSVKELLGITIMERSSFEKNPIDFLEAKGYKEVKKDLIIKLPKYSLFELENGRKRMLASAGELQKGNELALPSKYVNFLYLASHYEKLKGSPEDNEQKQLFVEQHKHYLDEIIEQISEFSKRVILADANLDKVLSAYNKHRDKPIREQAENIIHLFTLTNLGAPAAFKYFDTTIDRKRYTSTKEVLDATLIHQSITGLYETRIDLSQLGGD

Structure (SMILES)	Average Normalized Z score (SpCas9 [1])	avg z score primary (SpCas9 [1])	Normalized Z score 1 (SpCas9 [1])	Normalized Z score 2 (SpCas9 [1])	Normalized Z rep1 (SpCas9 [2])	Z score Rep1 (SpCas9 [2])	SpCas9 eGFP disruption Rep1 (SpCas9 [2])	Normalized Z rep2 (SpCas9 [2])	Z socre Rep2 (SpCas9 [2])	SpCas9 eGFP disruption Rep2 (SpCas9 [2])	SpCas9 eGFP disruption Rep1 (SpCas9 [2]; [3])	Normalized Z rep1 (SpCas9 [2]; [4])	SpCas9 eGFP disruption Rep2 (SpCas9 [2]; [3])	Normalized Z rep2 (SpCas9 [2]; [4])	Average Normalized Z score (SpCas9 [1]; average of replicates)
O=C(NCc1ccc(F)cc1)c1ccc(Oc2ccnc(-c3cccc(F)c3)n2)cc1 [Compound L662-0977]	0.44	8.64	0.42	0.47	−0.03	−0.18	75.519	−0.08	−0.72	74.871					
COc1ccc(CNC(=O)c2ccc(Oc3ccnc(-c4cccc(F)c4)n3)cc2)c(OC)c1 [Compound L662-0987]	0.37	7.18	0.38	0.36		1.06			1.78		79.157	0.16	79.829	0.19	
CCC(C)NC(=O)c1cccc(Oc2cc(-c3ccccc3)ncn2)c1 (centres unmarked) [Compound L663-0996]	0.39	7.57	0.43	0.35	−0.03	−0.21	75.44	−0.37	−3.54	69.294					
O=C(NC1CCCCC1)c1cccc(Oc2cc(-c3ccccc3)ncn2)c1 [Compound L663-0999]	0.40	7.77	0.44	0.36		0.55			−1.03		77.659	0.08	74.256	−0.11	
O=C(NC1CCCC1)c1cccc(Oc2cc(-c3ccccc3)ncn2)c1 [Compound L663-1002]	0.27	5.18	0.22	0.31	−0.26	−1.70	71.095	0.01	0.05	76.396					
Cc1ccc(C(C)NC(=O)c2cccc(Oc3cc(-c4ccccc4)ncn3)c2)cc1 (centres unmarked) [Compound L663-1062]	0.28	5.51	0.28	0.29	−0.10	−0.64	74.182	−0.07	−0.70	74.913					
O=C(NCc1ccc2c(c1)OCO2)c1cccc(Oc2cc(-c3ccccc3)ncn2)c1 [Compound L663-1076]	0.40	7.72	0.38	0.41	−0.11	−0.69	74.045	−0.01	−0.12	76.06					
COc1ccc(-c2cc(N3CCN(C(=O)c4ccc(C(C)(C)C)cc4)CC3)ncn2)cc1 [Compound M130-0012]		20.61	0.28	0.28	−0.10	−0.67	74.104	−0.03	−0.27	75.755					0.28
COc1ccc(C2CNC(=O)C2)cc1OC1CCCC1 (centres unmarked) [Compound S2127]		3.63	0.17	0.17	−0.11	−0.74	73.9	−0.28	−2.66	71.027					0.17
Cc1ncc(-c2ccnc(Nc3ccc(S(C)(=O)=O)cc3)n2)n1C(C)C [Compound S2621]		6.88	0.43	0.26	−1.68	−10.98	43.978	−1.71	−16.40	43.815					0.35
Cc1[nH]nc2ccc(-c3cncc(OCC(N)Cc4ccccc4)c3)cc12 (centres unmarked) [Compound S2670]		3.67	0.17	0.21	−3.44	−22.46	10.416	−3.50	−33.58	9.7985					0.19
Cl.Cl.Fc1cc(-c2cccc3ncc(-c4cnn(C5CCNCC5)c4)nc23)cc(F)c1CN1CCOCC1 [Compound S2686]		7.03	0.37	0.35	−0.73	−4.74	62.196	−0.57	−5.44	65.516					0.36
COc1ccc(-c2cc3c(C)nc(N)nc3n(C3CCC(OCCO)CC3)c2=O)cn1 (centres unmarked) [Compound S2743]		8.74	0.45	0.44	−0.75	−4.92	61.679	−0.89	−8.50	59.461					0.45
COc1ccc(-c2ccc3ncc4c(c3c2)n(-c2ccc(N3CCNCC3)c(C(F)(F)F)c2)c(=O)n4C)cn1.O=C(O)C=CC(=O)O [Compound S2749]		6.76	0.35	0.34	−3.98	−26.02	0	−4.01	−38.53	0					0.34
Cc1c(P(=S)(N2CCOCC2)N2CCOCC2)cc(C#N)n1C [Compound T0503-9777]		4.67	0.06	0.06		1.11			1.28		60.694	0.08	57.686	0.06	0.06
CCOC(=O)C1=C(C)NN=C(Nc2cccc(C)c2C)S1 [Compound T0519-6400]		4.54	0.05	0.07		1.96			2.42		62.891	0.14	59.8	0.12	0.06
CCn1c(CCC(=O)O)nc2cc(S(N)(=O)=O)ccc21 [Compound T5380152]		4.58	0.14	0.11		−1.27			4.01		54.565	−0.09	62.745	0.19	0.13
